# Assay results: patent publication US20230373985A1 (Origenis Gmbh, priority 2020, published 2023)
# Key:
# [1] = molecular target: T1, wt human TYK2, catalytic site (Homo sapiens, UniProt P29597); assay: HTRF KinEASE assay, TYK2; type: biochemical; conditions: 1 μM ATP; read-out: IC50, Activity Toward TYK2
# T1 construct: wt human TYK2, catalytic site; purchased SignalChem
# T1 sequence (P29597 897-1176 limits assumed): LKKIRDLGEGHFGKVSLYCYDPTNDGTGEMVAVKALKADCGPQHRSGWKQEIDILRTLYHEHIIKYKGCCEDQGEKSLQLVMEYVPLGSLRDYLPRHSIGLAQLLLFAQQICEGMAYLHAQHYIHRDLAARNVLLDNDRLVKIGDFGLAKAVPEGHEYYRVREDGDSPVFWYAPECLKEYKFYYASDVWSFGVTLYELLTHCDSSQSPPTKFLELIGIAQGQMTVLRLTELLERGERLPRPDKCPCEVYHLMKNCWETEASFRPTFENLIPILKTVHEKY
# Summary of the method: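 HTRF KinEASE-TK readout with 1 μM biotinylated TK substrate in 1× kinase buffer, ≥30 min at room temperature, then antibody/streptavidin-XL665 detection for 60 min. TYK2 at 2 nM with 1 μM ATP; JAK2 at 1 nM with 100 μM ATP. Analysis uses emission ratios.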
# [2] = molecular target: T2, wt human JAK1, catalytic site (Homo sapiens, UniProt P23458); assay: HTRF KinEASE assay, JAK1; type: biochemical; conditions: 2.5 μM ATP; read-out: IC50, Activity Toward JAK1
# T2 construct: wt human JAK1, catalytic site; purchased ThermoFisher
# Summary of the method: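 Two-step HTRF KinEASE assay: compound, kinase/biotinylated TK substrate and ATP were incubated at least 30 min at room temperature. Antibody plus streptavidin-XL665 was then added and plates were read after 60 min. Inhibition was derived from emission ratios according to the kit protocol.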
# T2 sequence (P23458 875-1153 limits assumed): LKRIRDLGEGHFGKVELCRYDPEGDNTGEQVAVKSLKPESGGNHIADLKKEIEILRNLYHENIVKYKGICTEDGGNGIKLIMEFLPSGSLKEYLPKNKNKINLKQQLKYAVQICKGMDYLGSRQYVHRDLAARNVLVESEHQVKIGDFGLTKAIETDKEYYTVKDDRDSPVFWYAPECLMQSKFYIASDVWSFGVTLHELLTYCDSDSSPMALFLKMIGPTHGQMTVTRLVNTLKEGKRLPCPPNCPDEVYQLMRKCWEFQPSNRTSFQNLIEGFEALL
SMILES,IC50 [1],IC50 [2]
"Cn1ncc(Nc2cn(-c3c(Cl)cccc3Cl)nc2C(N)=O)n1 [compound 379, 1-(2,6-dichlorophenyl)-4-((2-methyl-2H-1,2,3-triazol-4-yl)amino)-1H-pyrazole-3-carboxamide]",100 to 1000 nM,100 to 1000 nM
"Cn1cnnc1-c1ccc(Nc2cn(-c3c(Cl)cccc3Cl)nc2C(N)=O)cn1 [compound 360, 1-(2,6-dichlorophenyl)-4-((6-(4-methyl-4H-1,2,4-triazol-3-yl)pyridin-3-yl)amino)-1H-pyrazole-3-carboxamide]",10 to 100 nM,100 to 1000 nM
"Cn1ccc(Nc2cn(-c3c(Cl)cccc3Cl)nc2C(N)=O)cc1=O [compound 381, 1-(2,6-dichlorophenyl)-4-((1-methyl-2-oxo-1,2-dihydropyridin-4-yl)amino)-1H-pyrazole-3-carboxamide]",100 to 1000 nM,100 to 1000 nM
"Cc1nnnn1-c1ccc(Nc2cn(-c3c(Cl)cccc3Cl)nc2C(N)=O)cc1 [compound 243, 1-(2,6-dichlorophenyl)-4-((4-(5-methyl-1H-tetrazol-1-yl)phenyl)amino)-1H-pyrazole-3-carboxamide]",< 10 nM,10 to 100 nM
"Cc1cnc(C)c(-n2cc(Nc3cn(-c4c(Cl)cccc4Cl)nc3C(N)=O)cn2)n1 [compound 374, 1-(2,6-dichlorophenyl)-4-((1-(3,6-dimethylpyrazin-2-yl)-1H-pyrazol-4-yl)amino)-1H-pyrazole-3-carboxamide]",100 to 1000 nM,100 to 1000 nM
"CC(C)c1ccn(-c2ccc(Nc3cn(-c4c(Cl)cccc4Cl)nc3C(N)=O)cc2)n1 [compound 263, 1-(2,6-dichlorophenyl)-4-((4-(3-isopropyl-1H-pyrazol-1-yl)phenyl)amino)-1H-pyrazole-3-carboxamide]",100 to 1000 nM,100 to 1000 nM
"CC(C)n1cc(Nc2cn(-c3c(Cl)cccc3Cl)nc2C(N)=O)cn1 [compound 378, 1-(2,6-dichlorophenyl)-4-((1-isopropyl-1H-pyrazol-4-yl)amino)-1H-pyrazole-3-carboxamide]",10 to 100 nM,100 to 1000 nM
"Cc1cnnn1-c1ccc(Nc2cn(-c3c(Cl)cccc3Cl)nc2C(N)=O)nc1 [compound 432, 1-(2,6-dichlorophenyl)-4-((5-(5-methyl-1H-1,2,3-triazol-1-yl)pyridin-2-yl)amino)-1H-pyrazole-3-carboxamide]",100 to 1000 nM,10 to 100 nM
"Cn1cncc1-c1ccc(Nc2cn(-c3c(Cl)cccc3Cl)nc2C(N)=O)cc1 [compound 204, 1-(2,6-dichlorophenyl)-4-((4-(1-methyl-1H-imidazol-5-yl)phenyl)amino)-1H-pyrazole-3-carboxamide]",10 to 100 nM,100 to 1000 nM
"Cc1cnncc1-c1ccc(Nc2cn(-c3c(Cl)cccc3Cl)nc2C(N)=O)cn1 [compound 350, 1-(2,6-dichlorophenyl)-4-((6-(5-methylpyridazin-4-yl)pyridin-3-yl)amino)-1H-pyrazole-3-carboxamide]",100 to 1000 nM,100 to 1000 nM
"Cc1cccc2nnc(-c3ccc(Nc4nn(-c5c(Cl)cccc5Cl)nc4C(N)=O)cn3)n12 [compound 139, 2-(2,6-dichlorophenyl)-5-((6-(5-methyl-[1,2,4]triazolo[4,3-a]pyridin-3-yl)pyridin-3-yl)amino)-2H-1,2,3-triazole-4-carboxamide]",100 to 1000 nM,10 to 100 nM
"NC(=O)c1nn(-c2c(Cl)cccc2Cl)cc1Nc1ccc(-n2nncc2C(F)(F)F)cc1 [compound 438, 1-(2,6-dichlorophenyl)-4-((4-(5-(trifluoromethyl)-1H-1,2,3-triazol-1-yl)phenyl)amino)-1H-pyrazole-3-carboxamide]",10 to 100 nM,100 to 1000 nM
"CCc1ccn(-c2ccc(Nc3cn(-c4c(Cl)cccc4Cl)nc3C(N)=O)cc2)n1 [compound 240, 1-(2,6-dichlorophenyl)-4-((4-(3-ethyl-1H-pyrazol-1-yl)phenyl)amino)-1H-pyrazole-3-carboxamide]",100 to 1000 nM,100 to 1000 nM
CC(C)(C)NC(=O)c1ccc(Nc2cn(-c3c(F)cccc3Cl)nc2C(N)=O)cc1F [compound 29],10 to 100 nM,100 to 1000 nM

# Continued, values first:
IC50 [1],IC50 [2],SMILES
10 to 100 nM,100 to 1000 nM,"NC(=O)c1nn(-c2c(Cl)cccc2Cl)nc1Nc1ccc(C(=O)N2CCC(F)C2)cn1 (stereo in doubt) [compound 130, (S)-2-(2,6-dichlorophenyl)-5-((5-(3-fluoropyrrolidine-1-carbonyl)pyridin-2-yl)amino)-2H-1,2,3-triazole-4-carboxamide]"
< 10 nM,10 to 100 nM,"NC(=O)c1nn(-c2c(Cl)cccc2Cl)cc1Nc1ccc(C(=O)N2CCS(=O)(=O)CC2)nc1 [compound 463, 1-(2,6-dichlorophenyl)-4-((6-(1,1-dioxidothiomorpholine-4-carbonyl)pyridin-3-yl)amino)-1H-pyrazole-3-carboxamide]"
< 10 nM,< 10 nM,"NC(=O)c1nn(-c2c(Cl)cccc2Cl)nc1Nc1ccc(C(=O)NCCF)cc1 [compound 128, 2-(2,6-dichlorophenyl)-5-((4-((2-fluoroethyl)carbamoyl)phenyl)amino)-2H-1,2,3-triazole-4-carboxamide]"
10 to 100 nM,10 to 100 nM,"CC(C)n1cnnc1-c1ccc(Nc2nn(-c3c(Cl)cccc3Cl)nc2C(N)=O)cc1 [compound 125, 2-(2,6-dichlorophenyl)-5-((4-(4-isopropyl-4H-1,2,4-triazol-3-yl)phenyl)amino)-2H-1,2,3-triazole-4-carboxamide]"
10 to 100 nM,10 to 100 nM,"N#CC1CN(C(=O)c2ccc(Nc3cn(-c4c(Cl)cccc4Cl)nc3C(N)=O)nc2)C1 [compound 444, 4-((5-(3-cyanoazetidine-1-carbonyl)pyridin-2-yl)amino)-1-(2,6-dichlorophenyl)-1H-pyrazole-3-carboxamide]"
10 to 100 nM,< 10 nM,"CCc1cnnn1-c1ccc(Nc2nn(-c3c(Cl)cccc3Cl)nc2C(N)=O)cc1 [compound 126, 2-(2,6-dichlorophenyl)-5-((4-(5-ethyl-1H-1,2,3-triazol-1-yl)phenyl)amino)-2H-1,2,3-triazole-4-carboxamide]"
10 to 100 nM,10 to 100 nM,"N#CC1CN(C(=O)c2ccc(Nc3nn(-c4c(Cl)cccc4Cl)nc3C(N)=O)nc2)C1 [compound 153, 5-((5-(3-cyanoazetidine-1-carbonyl)pyridin-2-yl)amino)-2-(2,6-dichlorophenyl)-2H-1,2,3-triazole-4-carboxamide]"
100 to 1000 nM,100 to 1000 nM,"NC(=O)c1nn(-c2c(Cl)cccc2Cl)nc1Nc1ccc(-n2cc3c(n2)CCOC3)cc1 [compound 111, 2-(2,6-Dichloro-phenyl)-5-[4-(6,7-dihydro-4H-pyrano[4,3-c]pyrazol-2-yl)-phenylamino]-2H-[1,2,3]triazole-4-carboxylic acid amide]"
10 to 100 nM,100 to 1000 nM,"NC(=O)c1nn(-c2c(Cl)cccc2Cl)cc1Nc1ccc(C(=O)N2CCCC2)cn1 [compound 226, 1-(2,6-dichlorophenyl)-4-((5-(pyrrolidine-1-carbonyl)pyridin-2-yl)amino)-1H-pyrazole-3-carboxamide]"
10 to 100 nM,100 to 1000 nM,"NC(=O)c1nn(-c2c(Cl)cccc2Cl)nc1Nc1ccc(C(=O)N2CCOCC2)cn1 [compound 140, 2-(2,6-dichlorophenyl)-5-((5-(morpholine-4-carbonyl)pyridin-2-yl)amino)-2H-1,2,3-triazole-4-carboxamide]"
100 to 1000 nM,10 to 100 nM,"CCn1ncnc1-c1ccc(Nc2nn(-c3c(Cl)cccc3Cl)nc2C(N)=O)nc1 [compound 142, 2-(2,6-dichlorophenyl)-5-((5-(1-ethyl-1H-1,2,4-triazol-5-yl)pyridin-2-yl)amino)-2H-1,2,3-triazole-4-carboxamide]"
< 10 nM,< 10 nM,"NC(=O)c1nn(-c2c(Cl)cccc2Cl)cc1Nc1ccc(C(=O)N2CCSCC2)cc1 [compound 467, 1-(2,6-dichlorophenyl)-4-((4-(thiomorpholine-4-carbonyl)phenyl)amino)-1H-pyrazole-3-carboxamide]"
100 to 1000 nM,100 to 1000 nM,"NC(=O)c1nn(-c2c(Cl)cccc2Cl)nc1Nc1ccc(C(=O)N2CC(F)(F)C(F)(F)C2)cn1 [compound 132, 2-(2,6-dichlorophenyl)-5-((5-(3,3,4,4-tetrafluoropyrrolidine-1-carbonyl)pyridin-2-yl)amino)-2H-1,2,3-triazole-4-carboxamide]"
10 to 100 nM,100 to 1000 nM,"NC(=O)c1nn(-c2c(Cl)cccc2Cl)cc1Nc1ccc(C(=O)N2CC[C@H](N)C2)nc1 [compound 357, (S)-4-((6-(3-aminopyrrolidine-1-carbonyl)pyridin-3-yl)amino)-1-(2,6-dichlorophenyl)-1H-pyrazole-3-carboxamide]"
100 to 1000 nM,10 to 100 nM,"CN1CCCN(C(=O)c2ccc(Nc3cn(-c4c(Cl)cccc4Cl)nc3C(N)=O)nc2)CC1 [compound 448, 1-(2,6-dichlorophenyl)-4-((5-(4-methyl-1,4-diazepane-1-carbonyl)pyridin-2-yl)amino)-1H-pyrazole-3-carboxamide]"
